Reference: patent US20070053950A1, “Composition of polymer microcapsules of biocide for coating material” (priority 2005, published 2007)

Assays:
Assay type in all cases: cell-based
[1] = test system: Chlorella fusca; assay: Filter paper bioassay, antialgal activity of biocide dispersed in paint; conditions: around 5 wt % Irgarol in paint; taken after 0, 15 and 30 days of dispersion; even after 100 days
Description: (§1) W. et.al., Amer. J. Clin. Pathol., 45 (1966) p 493-496 and Thomberry, H. H. Phytopathology 40 (1950) p 419-420). […] The antifungal activity of all the composition samples is indicated by zone of inhibition that is developed around the filter paper discs against the vegetative growth after the spore germination. […] Similar type of results are obtained when microcapsules stored in paint for 12 days and 30 days are taken for such biocidal analysis. The antialgal activity of microencapsulated Irgarol and unencapsulated Irgarol against algal strains (Oscillatoria tenius and Chlorella fusca) is assessed by filter paper bioassay by method as described above for fungal activity. Unencpasulated Irgarol and microcapsules of Irgarol are dispersed in paint such that the concentration of Irgarol is around 5 wt % based on weight of paint and taken for analysis after 0 days, 15 days and 30 days of dispersion period.

[2] = test system: Oscillatoria tenius; assay: as above; conditions: around 5 wt % Irgarol in paint; taken after 0, 15 and 30 days of dispersion; even after 100 days
Description: as §1

[3] = test system: fungal strain Aspergillus niger (NRRL337); assay: Filter paper bioassay, antifungal activity of biocide dispersed in paint (zone of inhibition); conditions: sample taken after 0 days of dispersion
Protocol: Microcapsules of Zinc Pyrithione and unencpasulated Zinc Pyrithione are dispersed in paint such that the concentration of Zinc Pyrithione is around 5 wt % based on weight of paint and taken for analysis after 0 days, 12 days and 30 days of dispersion period. The antifungal activity of all the composition samples is indicated by zone of inhibition that is developed around the filter paper discs against the vegetative growth after the spore germination. The zone of inhibition is measured after 2 days and 100 days after the day on which samples are taken for filter paper bioassay.

| Molecule | inhibitory activity against algal strain [1] | inhibitory activity against algal strain [2] | Zone of inhibition (mm) (after 2 days) A ([3]; around 5 wt % Zinc Pyrithione in paint, zone measured after 2 days) | Zone of inhibition (mm) (after 100 days) B ([3]; around 5 wt % Zinc Pyrithione in paint, zone measured after 100 days) | % Reduction in inhibition zone C = [(A − B) × 100]/A ([3]; around 5 wt % biocide in paint, from 2 days to 100 days) |
| --- | --- | --- | --- | --- | --- |
| CSc1nc(NC2CC2)nc(NC(C)(C)C)n1 [unencapsulated irgarol, Irgarol] | very strong inhibitory activity | very strong inhibitory activity |  |  |  |
| Zinc Pyrithione [Unencapsulated Zinc Pyrithione] |  |  | 41 mm | 32 mm | 21.9% |
